From patent US9834542B2, “LXR modulators” (BRISTOL-MYERS SQUIBB COMPANY, priority 2013, dated 2017)

Molecular target: T1, LXRβ (Homo sapiens, UniProt P55055)
T1 construct: Co-transfection expression plasmids, comprising full-length LXRα (pCMX-h LXRα[…] or LXRβ (pCMX-hLXRβ)); expressed in transfected cells; host or cells: CV-1 African Green Monkey Kidney Cells
T1 sequence (P55055 1-460): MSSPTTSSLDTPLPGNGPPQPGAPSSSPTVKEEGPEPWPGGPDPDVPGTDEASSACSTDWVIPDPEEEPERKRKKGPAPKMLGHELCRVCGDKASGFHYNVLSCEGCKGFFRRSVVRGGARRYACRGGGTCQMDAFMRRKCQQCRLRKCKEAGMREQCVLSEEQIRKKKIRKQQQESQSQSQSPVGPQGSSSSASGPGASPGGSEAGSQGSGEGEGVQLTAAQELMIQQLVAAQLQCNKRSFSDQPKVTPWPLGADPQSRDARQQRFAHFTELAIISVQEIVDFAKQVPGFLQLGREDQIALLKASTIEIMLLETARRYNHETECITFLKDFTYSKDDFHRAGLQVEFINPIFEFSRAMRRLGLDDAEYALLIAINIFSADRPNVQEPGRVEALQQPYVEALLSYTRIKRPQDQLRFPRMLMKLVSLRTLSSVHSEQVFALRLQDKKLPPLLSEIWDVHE
T1 sequence (P19793 1-462 partner): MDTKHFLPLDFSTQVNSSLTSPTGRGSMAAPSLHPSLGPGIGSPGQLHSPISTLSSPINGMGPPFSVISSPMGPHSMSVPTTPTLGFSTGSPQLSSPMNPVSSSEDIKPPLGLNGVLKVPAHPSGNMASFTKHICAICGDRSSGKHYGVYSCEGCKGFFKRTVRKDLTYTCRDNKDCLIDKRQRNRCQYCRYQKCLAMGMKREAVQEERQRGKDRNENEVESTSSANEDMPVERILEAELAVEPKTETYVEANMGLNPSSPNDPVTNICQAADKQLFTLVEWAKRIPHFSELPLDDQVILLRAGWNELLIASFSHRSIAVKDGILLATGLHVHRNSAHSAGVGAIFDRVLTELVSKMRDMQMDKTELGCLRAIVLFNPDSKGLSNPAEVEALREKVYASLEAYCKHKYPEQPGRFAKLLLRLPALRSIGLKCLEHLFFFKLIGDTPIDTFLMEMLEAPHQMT
Test: Co-transfection assay (LXRE luciferase reporter), LXRβ
Format: cell-based
Set-up: % Efficacy: concentration or dose not given beside the values
Procedure, shortened: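 Luciferase output from an LXRE-Tk reporter measured after 20 h, 37 °C compound exposure of transiently transfected CV-1 cells expressing human LXRβ with endogenous RXR. EC50 fitted from 11-point half-log dose responses (mean of ≥2 runs); % efficacy versus maximal response of the reference agonist.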

EC50 (CV-1 cells transfected with pCMX-hLXRβ and LXREx1-Tk-Luciferase, 20 hours incubation): 3 µM
% Efficacy (LXRβ co-transfection, relative to high control 1-(2,4-difluorobenzyl)-2-oxo-6-(4-phenoxyphenyl)-4-(trifluoromethyl)-1,2-dihydropyridine-3-carbonitrile): 77%
SMILES: Cc1nc(-c2cc(-c3cccc(S(C)(=O)=O)c3)ccc2-n2cc(C(C)O)nc2C)c(-c2ccc3c(c2)OC(F)(F)O3)o1 (single isomer, unassigned) [Example 514, 1-(1-(3-(5-(2,2-difluorobenzo[d][1,3]dioxol-5-yl)-2-methyloxazol-4-yl)-3′-(methylsulfonyl)-[1,1′-biphenyl]-4-yl)-2-methyl-1H-imidazol-4-yl)ethanol]
